The experiment relates to T-47D spheroids with HUVEC/MSC, viability. Kind of experiment: Anticancer human tumor T-47D cell line growth inhibition [PI3K].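 As to all read-outs here: spheroids exposed to agents for seven days before reading.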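 As to viability, T/C: percent of DMSO vehicle control luminescence so 100% = untreated growth.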 To be noted: for viability, T/C: stronger effect = lower value. Put shortly: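 Agents were dosed from a top concentration near clinical Cmax (otherwise 10 microM) in half-log decrements, alone or combined with PI3K inhibitors. The spheroids contain tumor cells plus endothelial (HUVEC) and MSC stroma; viability is measured.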

[1] abbreviates: curve of first compound, second compound 0.0316 µM.
Setting [2] is: curve of first compound, second compound 0.1 µM.
Setting [3] is: curve of first compound, second compound 0.316 µM.
Where [4] appears, read: curve of first compound, second compound 1 µM.
[5] abbreviates: curve of first compound, second compound 3.16 µM.
The mark [6] stands for this setting: curve of first compound, second compound 10 µM.

Where “and” joins values, the source holds several entries; their conditions need not be identical. Equal entries are not always repeated. Where only a bound is given, the exact number is not on record here.

On to `CCCS(=O)(=O)Nc1ccc(F)c(C(=O)c2c[nH]c3ncc(-c4ccc(Cl)cc4)cc23)c1F` + Cc1nc(NC(=O)N2CCCC2C(N)=O)sc1-c1ccnc(C(C)(C)C(F)(F)F)c1, for which the IC50 by setting is: under setting [1], 9.2 µM; under setting [2], 8.1 µM; under setting [3], 7.63 µM; under setting [4], 7.35 µM; under setting [5], 4.41 µM; under setting [6], < 0.0316 µM. Also, the viability, T/C runs as follows: (second compound 0.0316 µM, first compound 0.0316 µM) 95.4%; (second compound 0.0316 µM, first compound 0.1 µM) 92.7%; (second compound 0.0316 µM, first compound 0.316 µM) 100%; (second compound 0.0316 µM, first compound 1 µM) 94.4%; (second compound 0.0316 µM, first compound 3.16 µM) 108%; (second compound 0.0316 µM, first compound 10 µM) 46.1%. Further, the viability, T/C is 93.1% (second compound 0.1 µM, first compound 0.0316 µM); 92.5% (second compound 0.1 µM, first compound 0.1 µM); 107% (second compound 0.1 µM, first compound 0.316 µM); 91.4% (second compound 0.1 µM, first compound 1 µM); 85.9% (second compound 0.1 µM, first compound 3.16 µM); 41.7% (second compound 0.1 µM, first compound 10 µM). For the same compound, the viability, T/C is, setting by setting: (second compound 0.316 µM, first compound 0.0316 µM) 99.8%; (second compound 0.316 µM, first compound 0.1 µM) 93%; (second compound 0.316 µM, first compound 0.316 µM) 89.3%; (second compound 0.316 µM, first compound 1 µM) 90.5%; (second compound 0.316 µM, first compound 3.16 µM) 76%; (second compound 0.316 µM, first compound 10 µM) 41.7%. For the same compound, the viability, T/C reads like this: (second compound 1 µM, first compound 0.0316 µM) 83.5%; (second compound 1 µM, first compound 0.1 µM) 82.3%; (second compound 1 µM, first compound 0.316 µM) 81.5%; (second compound 1 µM, first compound 1 µM) 78.3%; (second compound 1 µM, first compound 3.16 µM) 78.4%; (second compound 1 µM, first compound 10 µM) 39.7%. Besides, the viability, T/C is, setting by setting: (second compound 3.16 µM, first compound 0.0316 µM) 75.3%; (second compound 3.16 µM, first compound 0.1 µM) 76.9%; (second compound 3.16 µM, first compound 0.316 µM) 79%; (second compound 3.16 µM, first compound 1 µM) 81.5%; (second compound 3.16 µM, first compound 3.16 µM) 56%; (second compound 3.16 µM, first compound 10 µM) 35%. In addition, the viability, T/C runs as follows: (second compound 10 µM, first compound 0.0316 µM) 35.3%; (second compound 10 µM, first compound 0.1 µM) 40.7%; (second compound 10 µM, first compound 0.316 µM) 41.2%; (second compound 10 µM, first compound 1 µM) 37.8%; (second compound 10 µM, first compound 3.16 µM) 38.3%; (second compound 10 µM, first compound 10 µM) 32.8%.
In the case of `CC(=O)c1c(C)c2cnc(Nc3ccc(N4CCNCC4)cn3)nc2n(C2CCCC2)c1=O`, the viability, T/C (compound 0.000316 µM) was 94.9% [middle of 4 runs]; the viability, T/C (compound 0.001 µM) was 98% [middle of 4 runs]; the viability, T/C (compound 0.0316 µM) was 96.2% [middle of 4 runs]; the viability, T/C (compound 0.1 µM) was 86.7% [middle of 4 runs]. The IC50 (curve of compound) is > 0.1 µM.
Take `C=CC(=O)N1CCN(c2nc(=O)n(-c3c(C)ccnc3C(C)C)c3nc(-c4c(O)cccc4F)c(F)cc23)C(C)C1` (centres undefined): the viability, T/C runs as follows: (compound 0.0316 µM) 94.8% (2×) and 125% and 115%; (compound 0.1 µM) 96.8% [middle of 4 runs]; (compound 1 µM) 98.7% and 126% (2×) and 94.5%. Besides, the IC50 (curve of compound) is > 10 µM.
As for `Cn1cnc2c(F)c(Nc3ccc(Br)cc3Cl)c(C(=O)NOCCO)cc21` + CC(Nc1ncnc2nc[nH]c12)c1cc2cccc(Cl)c2c(=O)n1-c1ccccc1, the IC50 is, setting by setting: under setting [1], > 3 µM; under setting [2], > 3 µM; under setting [3], > 3 µM; under setting [4], > 3 µM; under setting [5], > 3 µM; under setting [6], > 3 µM. The viability, T/C is 104% (second compound 0.0316 µM, first compound 0.00949 µM); 93.4% (second compound 0.0316 µM, first compound 0.03 µM); 100% (second compound 0.0316 µM, first compound 0.0949 µM); 81% (second compound 0.0316 µM, first compound 0.3 µM); 84.2% (second compound 0.0316 µM, first compound 0.949 µM); 77.1% (second compound 0.0316 µM, first compound 3 µM). The viability, T/C (second compound 0.1 µM, first compound 0.00949 µM) was 94.6%; the viability, T/C (second compound 0.1 µM, first compound 0.03 µM) was 86%; the viability, T/C (second compound 0.1 µM, first compound 0.0949 µM) was 87.8%; the viability, T/C (second compound 0.1 µM, first compound 0.3 µM) is 83.8%; the viability, T/C (second compound 0.1 µM, first compound 0.949 µM) is 93.2%; the viability, T/C (second compound 0.1 µM, first compound 3 µM) is 102%. In addition, the viability, T/C was 73.4% (second compound 0.316 µM, first compound 0.00949 µM); 83.2% (second compound 0.316 µM, first compound 0.03 µM); 79.7% (second compound 0.316 µM, first compound 0.0949 µM); 83.9% (second compound 0.316 µM, first compound 0.3 µM); 82% (second compound 0.316 µM, first compound 0.949 µM); 75.2% (second compound 0.316 µM, first compound 3 µM). Moreover, the viability, T/C (second compound 1 µM, first compound 0.00949 µM) was 96.9%; the viability, T/C (second compound 1 µM, first compound 0.03 µM) was 104%; the viability, T/C (second compound 1 µM, first compound 0.0949 µM) is 86.1%; the viability, T/C (second compound 1 µM, first compound 0.3 µM) was 94.8%; the viability, T/C (second compound 1 µM, first compound 0.949 µM) is 75%; the viability, T/C (second compound 1 µM, first compound 3 µM) was 79.3%. Further, the viability, T/C is 79.3% (second compound 3.16 µM, first compound 0.00949 µM); 94.9% (second compound 3.16 µM, first compound 0.03 µM); 85.2% (second compound 3.16 µM, first compound 0.0949 µM); 95.5% (second compound 3.16 µM, first compound 0.3 µM); 80.2% (second compound 3.16 µM, first compound 0.949 µM); 82.5% (second compound 3.16 µM, first compound 3 µM). Moreover, the viability, T/C (second compound 10 µM, first compound 0.00949 µM) is 78.3%; the viability, T/C (second compound 10 µM, first compound 0.03 µM) was 82.2%; the viability, T/C (second compound 10 µM, first compound 0.0949 µM) was 71.3%; the viability, T/C (second compound 10 µM, first compound 0.3 µM) was 69.3%; the viability, T/C (second compound 10 µM, first compound 0.949 µM) was 80.9%; the viability, T/C (second compound 10 µM, first compound 3 µM) was 79.9%.
As to `CC(C)n1nc(-c2ccc3oc(N)nc3c2)c2c(N)ncnc21`, the viability, T/C is, setting by setting: (compound 0.000316 µM) 104% [middle of 4 runs]; (compound 0.001 µM) 96.4% [middle of 4 runs]; (compound 0.00316 µM) 97.8% [middle of 4 runs]; (compound 0.0316 µM) 87.3% [middle of 4 runs]; (compound 0.1 µM) 35.7% [middle of 4 runs]. For the same compound, the IC50 (curve of compound) was 70.6 nM [middle of 4 runs].

The values are drawn from PubChem BioAssay AID1963959 (Molecular Pharmacology Branch, DTP, NCI, 2024).
